Laboratory results as given in ChEMBL document CHEMBL1201862, “PubChem BioAssay data set” (2004).
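The compound was tested at five concentrations on cells cultured in 96-well plates, with a 48-hour exposure period. GI50 = concentration required for 50% inhibition of growth.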 Calls of active or inactive are those of the source. No stated cut-off is given here; in the data, active = GI50 up to about 1.1 µM and inactive = higher.

Legend:
Test in all cases: DTP human tumour cell line panel, 48 h
786-0 = system: 786-0
A498 = system: A498
A549 = system: A549
ACHN = system: ACHN
BT-549 = system: BT-549
CAKI-1 = system: CAKI-1
CCRF-CEM = system: CCRF-CEM
COLO 205 = system: COLO 205
DU-145 = system: DU-145
EKVX = system: EKVX
HCC 2998 = system: HCC 2998
HCT-116 = system: HCT-116
HCT-15 = system: HCT-15
HL-60 = system: HL-60
HOP-62 = system: HOP-62
HOP-92 = system: HOP-92
HT-29 = system: HT-29
Hs-578T = system: Hs-578T
K562 = system: K562
KM12 = system: KM12
LOX IMVI = system: LOX IMVI
M14 = system: M14
MCF7 = system: MCF7
MDA-MB-231 = system: MDA-MB-231
MDA-MB-435 = system: MDA-MB-435
MDA-N = system: MDA-N
MOLT-4 = system: MOLT-4
Malme-3M = system: Malme-3M
NCI-H226 = system: NCI-H226
NCI-H23 = system: NCI-H23
NCI-H460 = system: NCI-H460
NCI/ADR-RES = system: NCI/ADR-RES
OVCAR-3 = system: OVCAR-3
OVCAR-4 = system: OVCAR-4
OVCAR-5 = system: OVCAR-5
OVCAR-8 = system: OVCAR-8
PC-3 = system: PC-3
RPMI-8226 = system: RPMI-8226
RXF 393 = system: RXF 393
SF-268 = system: SF-268
SF-295 = system: SF-295
SF-539 = system: SF-539
SK-MEL-28 = system: SK-MEL-28
SK-MEL-2 = system: SK-MEL-2
SK-MEL-5 = system: SK-MEL-5
SK-OV-3 = system: SK-OV-3
SN12C = system: SN12C
SNB-19 = system: SNB-19
SNB-75 = system: SNB-75
SW-620 = system: SW-620
TK-10 = system: TK-10
U-251 = system: U-251
UACC-257 = system: UACC-257
UACC-62 = system: UACC-62
UO-31 = system: UO-31

## COc1c(N2CCCCC2)c2c(=O)c3ccccc3oc2c2cc(C)oc12
786-0
  GI50: 6.35 µM (inactive)
A498
  GI50: 16 µM (inactive)
A549
  GI50: 18.2 µM (inactive)
ACHN
  GI50: 5.6 µM (inactive)
BT-549
  GI50: 21.5 µM (inactive)
CAKI-1
  GI50: 14.1 µM (inactive)
CCRF-CEM
  GI50: 8.63 µM (inactive)
COLO 205
  GI50: 4.09 µM (inactive)
DU-145
  GI50: 17.9 µM (inactive)
EKVX
  GI50: 25.9 µM (inactive)
HCC 2998
  GI50: 18.5 µM (inactive)
HCT-116
  GI50: 2.34 µM (inactive)
HCT-15
  GI50: 16.7 µM
HL-60
  GI50: 20.9 µM (inactive)
HOP-62
  GI50: 9.91 µM (inactive)
HOP-92
  GI50: 7.45 µM (inactive)
HT-29
  GI50: 3.87 µM (inactive)
Hs-578T
  GI50: 18.4 µM (inactive)
K562
  GI50: 6.1 µM (inactive)
KM12
  GI50: 16.5 µM (inactive)
LOX IMVI
  GI50: 14 µM (inactive)
M14
  GI50: 14.8 µM (inactive)
MCF7
  GI50: 16.7 µM (inactive)
MDA-MB-231
  GI50: 5.26 µM (inactive)
MDA-MB-435
  GI50: 28.6 µM (inactive)
MDA-N
  GI50: 23.7 µM (inactive)
MOLT-4
  GI50: 4.03 µM (inactive)
Malme-3M
  GI50: 19.3 µM (inactive)
NCI-H226
  GI50: 13.3 µM (inactive)
NCI-H23
  GI50: 18.5 µM (inactive)
NCI-H460
  GI50: 7.78 µM (inactive)
NCI/ADR-RES
  GI50: 15.3 µM (inactive)
OVCAR-3
  GI50: 18.8 µM (inactive)
OVCAR-4
  GI50: 13.9 µM (inactive)
OVCAR-5
  GI50: 23.5 µM (inactive)
OVCAR-8
  GI50: 16.9 µM (inactive)
PC-3
  GI50: 12.7 µM (inactive)
RPMI-8226
  GI50: 5.94 µM (inactive)
RXF 393
  GI50: 15.6 µM (inactive)
SF-268
  GI50: 17.9 µM (inactive)
SF-295
  GI50: 18.8 µM (inactive)
SF-539
  GI50: 35.9 µM (inactive)
SK-MEL-28
  GI50: 25.4 µM (inactive)
SK-MEL-2
  GI50: 15.9 µM (inactive)
SK-MEL-5
  GI50: 16.5 µM (inactive)
SK-OV-3
  GI50: 28.1 µM (inactive)
SN12C
  GI50: 24.8 µM (inactive)
SNB-19
  GI50: 40 µM (inactive)
SNB-75
  GI50: 11.3 µM (inactive)
SW-620
  GI50: 8.81 µM (inactive)
TK-10
  GI50: 37.6 µM (inactive)
U-251
  GI50: 24.4 µM (inactive)
UACC-257
  GI50: 33 µM (inactive)
UACC-62
  GI50: 17.8 µM (inactive)
UO-31
  GI50: 11.3 µM (inactive)
